Reference: patent US11629160B2, “Corrole-based frameworks and methods of use thereof” (University of South Florida, priority 2019, dated 2023)

Assay: Singlet oxygen (1O2) generation, DPBF scavenger under 635 nm laser
Conditions: 50 μg in 1.0 ml NMP, DPBF 10 μM, 635 nm laser 0.18 W/cm^2, absorbance at 415 nm
Experimental: Singlet Oxygen (^1O2) Generation. In a typical experiment, 50 μg of the monomer or Corrole-COF materials was suspended in 1 mL of N-methylpyrrolidone (NMP) (equilibrated with air at RT) containing 10 μM of singlet oxygen sensor 1,3-diphenylisobenzofuran (DPBF). The mixture solutions were irradiated under a 635 nm laser (0.18 W cm^−2). The characteristic UV-Vis absorption spectra of the DPBF were measured at 415 nm to determine the generation of ^1O2 every 1 min, in which the UV-Vis absorption spectra of samples were collected using a UV-1800 spectrophotometer (Shimadzu, Japan) with a 0.3 cm quartz cuvette at room temperature.
TPAPC-COF was evaluated for its ability to generate ^1O2 (FIGS. 8A and 7B). The photo-generating ^1O2 ability of TPAPC-COF under a 635 nm laser (0.18 W/cm^2) irradiation was investigated by using 1,3-diphenylisobenzofuran (DPBF) as a scavenger, and the process was monitored by time-dependent electronic absorption spectroscopy.

Structure (SMILES): Nc1ccc(-c2c3nc(c4ccc([nH]4)c(-c4ccc(N)cc4)c4ccc([nH]4)c(-c4ccc(N)cc4)c4ccc2[nH]4)C=C3)cc1 [H3TPAPC, 5,10,15-tris(p-aminophenyl)corrole]
- degradation efficiency (conversion) of DPBF: 56%
